Results reported in PMC8529873, “Carbohydrate-Based NK1R Antagonists with Broad-Spectrum Anticancer Activity” (Journal of Medicinal Chemistry, 2021).
Read-outs that look alike come from different tables or passages of the source. Where no end group is shown, it is not given here.

Legend:
A549 cells [1] = experiment: Glycolysis inhibition: glucose consumption and lactate production; type: cell-based, human; details: A549 cells exposed for 8 h
Method: Our next aim was to study the possible mechanisms involved in the selective anticancer activity of 14α. Because tumor cells rely on glycolysis for survival more than normal cells,[32] we evaluated if our compound behaved as a glycolysis inhibitor. Since glycolysis consumes glucose and produces lactate, we measured the concentrations of glucose and lactate in untreated A549 cells and in cells exposed for 8 h to 14α and to the known glycolysis inhibitor dichloroacetate.
Glycolysis inhibition was assessed by measuring concentrations of glucose ([…] of glycolysis) and lactate (final product of glycolysis) in control and treated cells. Briefly, 4 × 10^5 cells were seeded into 24-well plates. After 10 h, the medium of cells was renewed and drugs were added. Cells were exposed to the tested compounds for 8 h, and glucose and lactate concentrations were determined in cell supernatants using the Accutrend Plus analyzer together with Accutrend glucose strips and BM-Lactate strips (Roche Diagnostics). […] Results are expressed as a percentage of lactate production and percentage of glucose consumption in relation to untreated cells and are shown as the means ± SEM of two independent experiments.

A549 cancer cells = experiment: Cytotoxicity of 14α in presence or absence of antioxidants (ROS involvement); type: cell-based, human; details: A549, 48 h
Method: It is known that cancer cells have higher basal levels of reactive oxygen species (ROS) than normal cells, making them more sensitive to exogenous induction of ROS.[33] […] Therefore, we decided to study whether the generation of ROS was involved in the selective cytotoxic effect of 14α. A549 cancer cells were treated with 14α for 48 h in the presence or absence of three antioxidants: N-acetylcysteine (antioxidant activity through the glutathione system), catalase (hydrogen peroxide-degrading enzyme), and Mn(III) tetrakis(1-methyl-4-pyridyl)porphyrin pentachloride (MnTMPyP; superoxide anion scavenger).

[2] = test system: MRC-5 human nonmalignant lung cells; experiment: MTT cytotoxicity assay, 48 h, MRC-5 cells; type: cell-based
Text: (§1) First, we evaluated the cytotoxicity of our carbohydrate derivatives against MRC-5 human nonmalignant lung cells and A549 human lung cancer cells using the 3-(4,5-dimethylthiazol-2-yl)-2,5-diphenyltetrazolium bromide (MTT) assay under the same experimental conditions.
Cell viability was estimated with the 3-(4,5-dimethylthiazol-2-yl)-2,5-diphenyltetrazolium bromide (MTT) assay or the resazurin assay. Both assays are redox-based colorimetric techniques based on the capability of viable cells to reduce the yellow product MTT or the blue reagent resazurin into a purple formazan dye or a pink-colored product, respectively. The number of live cells is directly proportional to the amount of the final product created. Exponentially growing cells were seeded in 96-well plates and were allowed to grow during 24 h. […]
(§2) Then, 80 μL of 20% sodium dodecyl sulfate (SDS) in 20 mM HCl was added to dissolve the insoluble purple formazan product and plates were incubated for 15 h at 37 °C. The optical density (OD) of each well was measured at 540 nm with a multiwell plate spectrophotometer reader to quantify cell survivals.
In both assays, results were expressed as the percentage of cell viability in relation to untreated cells (controls). All data were averaged from two to five independent experiments and were expressed as the means ± standard error of the mean (SEM). […]

[3] = test system: A549 human lung cancer cells; experiment: MTT cytotoxicity assay, 48 h, A549 cells; type: cell-based; details: for IC50: read-out: IC50 (mean ± SEM) A549 (cancer)
Text: as §1
(§3) Cell viability was estimated with the 3-(4,5-dimethylthiazol-2-yl)-2,5-diphenyltetrazolium bromide (MTT) assay or the resazurin assay. Both assays are redox-based colorimetric techniques based on the capability of viable cells to reduce the yellow product MTT or the blue reagent resazurin into a purple formazan dye or a pink-colored product, respectively. The number of live cells is directly proportional to the amount of the final product created. Exponentially growing cells were seeded in 96-well plates and were allowed to grow during 24 h. The cells were then treated with several concentrations of the tested compounds for 48–96 h (the incubation periods are specified in the figures and table legends) before measuring the cell viability using the MTT assay or the resazurin assay.
as §2
In both assays, results were expressed as the percentage of cell viability in relation to untreated cells (controls). All data were averaged from two to five independent experiments and were expressed as the means ± standard error of the mean (SEM). For statistical analysis, the t-test (paired, two-tailed) was used. A p value >0.05 is not considered statistically significant and is not represented by any symbol, a p value <0.05 is considered statistically significant and is indicated with an asterisk (*), a p value <0.01 is indicated with a double asterisk (**), and a p value <0.001 is indicated with a triple asterisk (***).

[4] = test system: HaCaT (human skin normal); experiment: Resazurin cell viability assay, 96 h, HaCaT; type: cell-based; details: read-out: IC50 (mean ± SEM) HaCaT
Method: Thirteen human cancer cells lines and one human nonmalignant cell line were treated with 14α for 96 h. We used longer exposure times because some of these cell lines have long cell cycles (24–48 h); this longer exposure time allows the cells to pass several cycles in the presence of 14α. Cell viability was estimated with the resazurin assay. HaCaT human skin nonmalignant cells were used to study selectivity; these cells are derived from normal adult tissue and have a division rate similar to that of cancer cells. One key limitation of most anticancer drugs is that, in addition to targeting cancer cells, they also target nonmalignant cells with similar division rates. […] These cell lines were at least 3 times more sensitive than the normal cell line to 14α treatment. HepG2 (hepatocarcinoma) and KATO III (gastric cancer) were at least 9-fold more vulnerable to 14α than HaCaT nonmalignant cells.
Cell viability was estimated with the 3-(4,5-dimethylthiazol-2-yl)-2,5-diphenyltetrazolium bromide (MTT) assay or the resazurin assay. […]
For the resazurin assay, after treatment, the medium was removed and 150 μL of resazurin solution (20 μg/mL in medium) was added to each well for 3–6 h. The OD of each well was measured at 540 and 620 nm on a multiwell plate spectrophotometer reader.

MeWo (melanoma; BRAF WT) = experiment: Resazurin cell viability assay, 96 h, MeWo; type: cell-based, human
Text: (§4) Cell viability was estimated with the resazurin assay. HaCaT human skin nonmalignant cells were used to study selectivity; these cells are derived from normal adult tissue and have a division rate similar to that of cancer cells.
as §3
(§5) The OD of each well was measured at 540 and 620 nm on a multiwell plate spectrophotometer reader.

[5] = test system: AN3Ca (endometrial adenocarcinoma); experiment: Resazurin cell viability assay, 96 h, AN3Ca; type: cell-based, human
Text: as §4, §3, §5

HT29 (colorectal cancer) = experiment: Resazurin cell viability assay, 96 h, HT29; type: cell-based, human
Text: as §4, §3, §5

T24 (bladder cancer) = experiment: Resazurin cell viability assay, 96 h, T24; type: cell-based, human
Text: as §4, §3, §5

GAMG (glioblastoma) = experiment: Resazurin cell viability assay, 96 h, GAMG; type: cell-based, human
Text: as §4, §3, §5

HNO97 (tongue cancer) = experiment: Resazurin cell viability assay, 96 h, HNO97; type: cell-based, human
Text: as §4, §3, §5

Sk-OV-3 (ovarian cancer) = experiment: Resazurin cell viability assay, 96 h, Sk-OV-3; type: cell-based, human; details: IC50 HaCaT / IC50 Sk-OV-3
Text: as §4, §3, §5

PC-3 (prostate cancer) = experiment: Resazurin cell viability assay, 96 h, PC-3; type: cell-based, human
Text: as §4, §3, §5

HepG2 (hepatocarcinoma) = experiment: Resazurin cell viability assay, 96 h, HepG2; type: cell-based, human
Text: as §4, §3, §5

[6] = test system: KATO III (gastric cancer); experiment: Resazurin cell viability assay, 96 h, KATO III; type: cell-based, human
Text: as §4, §3, §5

[7] = test system: MDA-MB-231 (triple-negative breast cancer); experiment: Resazurin cell viability assay, 96 h, MDA-MB-231; type: cell-based, human; details: IC50 HaCaT / IC50 MDA-MB-231
Text: as §4, §3, §5

[8] = test system: Sk-Br-3 (HER2-positive breast cancer); experiment: Resazurin cell viability assay, 96 h, Sk-Br-3; type: cell-based, human
Text: as §4, §3, §5

[9] = test system: A64-CLS (submaxillary gland adenoma); experiment: Resazurin cell viability assay, 96 h, A64-CLS; type: cell-based, human
Text: as §4, §3, §5

A549 cells [10] = experiment: Cell proliferation after SP, Resazurin assay, 48 h; type: cell-based, human; details: SP 2.5 - 200 nM
Method: Competition Experiments of Cytotoxic effect of in presence of SP. 14α
First, we treated A549 cells with several concentrations of SP (2.5 - 200 nM) for 48 h and we evaluated cell proliferation with the Resazurin assay. Although it has been reported that A549 […]
of SP. The highest SP concentration tested (200 nM) was added 1 h before 32 µM of 14α or Cisplatin. After a 48 h treatment period, the cell viability was determined with the Resazurin […]
Figure S-4. Evaluation of cytotoxic activity of 14α derivative and Cisplatin on A549 lung cancer cells and HaCaT normal cells in presence of SP. Results are representative of at least three independent experiments. Values are expressed in mean with SEM.
1 O'Connor, T.M.; O'Connell, J.; O'Brien, D.I.; Bennett, M.W.; Goode, T.; Burke, L.; Bredin, C.P.; Shanahan,
(1 picture or pasted object on this page, not shown here)

With `C[C@@H](O[C@H]1O[C@@H]2CO[C@@H](c3ccccc3)O[C@@H]2[C@H](O)[C@H]1OCc1ccc(F)cc1)c1cc(C(F)(F)F)cc(C(F)(F)F)c1` [14α, (R)-{1-[3,5-Bis-(trifluoromethyl)phenyl]ethyl} (R)-(4,6-O-Benzylidene)-2-O-p-fluorobenzyl-α-D-galactopyranoside] the “glucose consumption and lactate production (glycolysis inhibition)” value (A549 cells [1]) was “did not reduce glucose consumption or lactate production” and the “effect of antioxidants (N-acetylcysteine, catalase, MnTMPyP) on cytotoxicity” value (A549 cancer cells) was “None of these three antioxidants reduced the cytotoxicity”.
Work on `C[C@@H](O[C@H]1OCCN(Cc2n[nH]c(=O)[nH]2)[C@H]1c1ccc(F)cc1)c1cc(C(F)(F)F)cc(C(F)(F)F)c1` [Aprepitant] yielded an IC50 ([2]; Homo sapiens, MRC5, read-out: IC50 (mean ± SEM) MRC-5 (normal)) of 28.9 ± 6.8 µM and an IC50 ([3]; Homo sapiens, A549, MTT assay) of 18.3 ± 3.4 µM.
With `N.N.[Cl][Pt][Cl]` [Cisplatin] the IC50 [4] was 2.1 ± 0.7 µM, the “selectivity index (vs HaCaT; mean ± SEM) MeWo” value (MeWo (melanoma; BRAF WT); IC50 HaCaT / IC50 MeWo, Resazurin) was 1.0 ± 0.1 and the IC50 (MeWo (melanoma; BRAF WT); Resazurin assay, read-out: IC50 (mean ± SEM) MeWo) was 2.2 ± 1.1 µM. For the same compound, the IC50 ([2]; read-out: IC50 (mean ± SEM) MRC-5 (normal)) was 99.2 ± 37 µM, the “selectivity index (vs HaCaT; mean ± SEM) AN3Ca” value ([5]; IC50 HaCaT / IC50 AN3Ca, Resazurin) was 2.1 ± 1.2 and the IC50 ([5]; Resazurin assay, read-out: IC50 (mean ± SEM) AN3Ca) was 1.8 ± 1.4 µM. For the same compound, the “selectivity index (vs HaCaT; mean ± SEM) HT29” value (HT29 (colorectal cancer); IC50 HaCaT / IC50 HT29, Resazurin) was 0.4 ± 0.1, the IC50 (HT29 (colorectal cancer); Resazurin assay, read-out: IC50 (mean ± SEM) HT29) was 4.9 ± 0.8 µM and the “selectivity index (vs HaCaT; mean ± SEM) T24” value (T24 (bladder cancer); IC50 HaCaT / IC50 T24, Resazurin) was 1.3 ± 0.0. The IC50 (T24 (bladder cancer); Resazurin assay, read-out: IC50 (mean ± SEM) T24) was 1.6 ± 0.5 µM, the “selectivity index (vs HaCaT; mean ± SEM) GAMG” value (GAMG (glioblastoma); IC50 HaCaT / IC50 GAMG, Resazurin) was 0.7 ± 0.0 and the IC50 (GAMG (glioblastoma); Resazurin assay, read-out: IC50 (mean ± SEM) GAMG) was 3.2 ± 0.9 µM. The “selectivity index (vs HaCaT; mean ± SEM) HNO97” value (HNO97 (tongue cancer); IC50 HaCaT / IC50 HNO97, Resazurin) was 0.8 ± 0.1, the IC50 (HNO97 (tongue cancer); Resazurin assay, read-out: IC50 (mean ± SEM) HNO97) was 2.5 ± 0.4 µM and the “selectivity index (vs HaCaT; mean ± SEM) Sk-OV-3” value (Sk-OV-3 (ovarian cancer)) was 0.5 ± 0.2. For the same compound, the IC50 ([3]; MTT assay) was 13.5 ± 2.7 µM, the “selectivity index (IC50 MRC-5 / IC50 A549)” value ([3]; mean of indices of each individual experiment, MTT) was 8.6 ± 3.9 and the “selectivity index (vs HaCaT; mean ± SEM) PC-3” value (PC-3 (prostate cancer); IC50 HaCaT / IC50 PC-3, Resazurin) was 0.7 ± 0.2. The IC50 (PC-3 (prostate cancer); Resazurin assay, read-out: IC50 (mean ± SEM) PC-3) was 3.1 ± 0.2 µM, the “selectivity index (vs HaCaT; mean ± SEM) HepG2” value (HepG2 (hepatocarcinoma); IC50 HaCaT / IC50 HepG2, Resazurin) was 1.2 ± 0.2 and the IC50 (HepG2 (hepatocarcinoma); Resazurin assay, read-out: IC50 (mean ± SEM) HepG2) was 1.8 ± 0.2 µM. The “selectivity index (vs HaCaT; mean ± SEM) KATO III” value ([6]; IC50 HaCaT / IC50 KATO III, Resazurin) was 1.2 ± 0.5, the IC50 ([6]; Resazurin assay, read-out: IC50 (mean ± SEM) KATO III) was 1.8 ± 0.2 µM and the “selectivity index (vs HaCaT; mean ± SEM) MDA-MB-231” value [7] was 0.3 ± 0.1. For the same compound, the “selectivity index (vs HaCaT; mean ± SEM) Sk-Br-3” value ([8]; IC50 HaCaT / IC50 Sk-Br-3, Resazurin) was 0.5 ± 0.1, the IC50 ([8]; Resazurin assay, read-out: IC50 (mean ± SEM) Sk-Br-3) was 4.3 ± 0.9 µM and the “selectivity index (vs HaCaT; mean ± SEM) A64-CLS” value ([9]; IC50 HaCaT / IC50 A64-CLS, Resazurin) was 0.5 ± 0.0. The IC50 ([9]; Resazurin assay, read-out: IC50 (mean ± SEM) A64-CLS) was 4.5 ± 1.2 µM.
In the case of “substance P (RPKPQQFFGLM-NH2; ends and bridges not checked; also: 125I label, position not given here) [SP]”, the “cell proliferation after addition of SP” value (A549 cells [10]) is reported as “did not observe any increase in cell proliferation”.
